{
  "source": "patent US8609413B2",
  "about": "“Neurons, astrocytes and oligodendrocytes differentiated from a mammalian pluripotent or neural stem cells exposed to a pyridine deriviative” (Research Development Foundation, priority 2007, dated 2013)",
  "key": {"CGR8 mouse ES cells": {"test_system": "CGR8 mouse ES cells", "experiment": "Secondary screening assay: neuronal differentiation of mouse ES cells, total neurite outgrowth", "assay_type": "cell-based", "details": "5 days with compound in SR medium, then 4 days N2 medium without compound; vs control cells", "experimental": "To perform the secondary screening assay, neuronal differentiation of CGR8 cells was carried out in SR medium (DMEM high glucose supplemented with 15% KO serum (Gibco), non-essential amino acids, penicillin and streptomycin). Cells were plated at 10^5 cells per 10 cm cell culture dish and maintained is SR medium for 5 days with compounds found in the primary screen. Cells were subsequently dissociated and replated at 4×10^4 cells/cm^2 in N2 medium (DMEM high glucose, N2 supplement, 10 ng/ml basic fibroblast growth factor, penicillin and streptomycin) and cultured for four additional days without compound addition. Immunostaining quantification. Immunostaining and nuclear staining quantifications were performed using the MetaXpress software (Molecular devices). Total neurite outgrowth was quantified using the neurite outgrowth analysis module, and total cell numbers were quantified with the count nuclei analysis module. For further studies, 32 compounds were selected with high Fluc/Rluc ratio. A dose-response analysis of Fluc/Rluc ratio was performed in the same conditions as used for the primary screen, using concentrations ranging from 100 nM to 100 μM. […] The amounts of neurons were quantified by calculating total neurite outgrowth identified by β3-tubulin immunoreactivity using an automated imaging system (see Methods above)."}, "H1 human ES cells": {"test_system": "H1 human ES cells", "experiment": "Neuronal differentiation of human ES cells, differentiation protocol 2 (clinical grade protocol)", "assay_type": "cell-based", "experimental": "Undifferentiated human H1 ES cells were cultured on irradiated mouse embryonic fibroblasts (MEF). To carry out neuronal differentiation, ES cells were mechanically dissociated into small aggregates (50-300 cells) and cultured in suspension on low-attachment six-well plates. For the first 4 days, the cells were cultured in neuronal induction medium (DMEM F-12 (Gibco), N2 supplement (Gibco), penicillin and streptomycin (Gibco), phenazopyridine 3:M). Then the medium was changed to simple neuronal proliferation medium (DMEM F-12, N2 supplement, 20 ng/ml human recombinant bFGF, penicillin and streptomycin, phenazopyridine 3:M) for 2 additional days. Subsequently, 15-20 6-day old cell aggregates were plated on polyornithine/laminin-coated six-well plates and maintained in simple neuronal proliferation medium for 7 days. Cells were then mechanically dissociated and replated in N2 medium (DMEM high glucose (Gibco), 10 ng/ml human recombinant bFGF (Gibco), N2 supplement (Gibco), penicillin and streptomycin (Gibco)) at a density of 20,000 cells per cm^2 on polyornithine/laminin-coated six-well plate. Cells were passaged when they reached 80-90% confluency, and were maintained in the same culture conditions for 2 additional weeks. Stock phenazopyridine (Microsource Discovery Inc.) was prepared by diluting phenazopyridine powder in DMSO (Sigma-Aldrich) at a concentration of 6 mM. The stock solution was diluted at 1:2000 in cell culture media to obtain a final concentration of 3:M Each of the components of the neuronal induction medium, the simple neuronal proliferation medium and the N2 medium can be replaced with clinical grade equivalents. Therefore, the foregoing procedure of carrying out neuronal differentiation is referred to herein as the “clinical grade protocol.”\nThe effects of phenazopyridine on ES cell differentiation were investigated using the clinical grade-compatible protocol. The first step involved generation of spheres of cells grown in suspension for 6 days, followed by replating on polyornithine/laminin coated plastic. One week later, cells were passaged at 2×10^4 cells/cm^2 on polyornithine/laminin coated plastic, and during the following two weeks cells were passaged when they reached 80-90% confluency. Cells were treated with either DMSO (1:2000) or with phenazopyridine (PAP) at 3:M with equivalent final DMSO concentration throughout the 4 week period.\nTwo different protocols were used to induce neuronal differentiation of human ES cells. In the first protocol, human ES cells were mechanically dissociated into small aggregates and plated on laminin/polyornithine coated six-well plates. Cells were cultured 2 weeks in human SR medium (DMEM F-12 supplemented with 15% knockout serum (Gibco), non-essential amino acids, penicillin and streptomycin), followed by 4 weeks in N2 medium. Compounds were added throughout these first 6 weeks. Subsequently, cells were mechanically dissociated and replated on polyornithine/laminin-coated 6 well plates. Throughout the text, this first differentiation protocol will be referred to as “differentiation protocol 1”. The second differentiation protocol was derived from previously described differentiation conditions (Nat et al., 2007). In the second differentiation protocol, undifferentiated human ES cells were mechanically dissociated into small aggregates and cultured in suspension on low-attachment six-well plates. For the first 4 days, they were cultured in neuronal induction medium (DMEM F-12, N2 supplement, penicillin and streptomycin), which was changed to simple neuronal proliferation medium (DMEM F-12, N2 supplement, 20 ng/ml bFGF, penicillin and streptomycin) for 2 additional days. Subsequently, aggregates were plated on polyornithine/laminin-coated six-well plates and maintained in simple neuronal proliferation medium for 7 days. Cells were then mechanically dissociated and replated in N2 medium at a density of 2×10^4 cells per cm^2 for two additional weeks."}, "[1]": {"details": "3 μM, four weeks of differentiation"}},
  "note": "Entries after “also recorded” stand apart in the source; their conditions may differ.",
  "data": [
    {"smiles": "Nc1ccc(/N=N/c2ccccc2)c(N)n1", "note": "[phenazopyridine]", "values": [
      {"measurement": "total neurite outgrowth identified by β3-tubulin immunoreactivity", "setting": "CGR8 mouse ES cells", "result": "increase of total neurite outgrowth as compared to control cells"},
      {"measurement": "dissociation after mechanical passaging", "setting": "H1 human ES cells; 3 μM vs DMSO", "result": "could easily be dissociated into single cells"},
      {"measurement": "percentage of living single cells by trypan blue exclusion (survival of dissociated cells)", "setting": "H1 human ES cells; 3 μM vs DMSO, at passaging at different time points", "result": "promotes survival of dissociated cells"},
      {"measurement": "sphere morphology after one week of differentiation", "setting": "H1 human ES cells; 3 μM vs DMSO, phase contrast", "result": "No apparent difference; also recorded: morphologically indistinct"},
      {"measurement": "sphere morphology at two weeks of differentiation", "setting": "H1 human ES cells; 3 μM vs DMSO, phase contrast", "result": "developed into big areas of monolayer surrounding the plated spheres; also recorded: developed bigger areas of monolayer at their periphery"},
      {"measurement": "neuronal marker phenotype by immunostaining", "setting": "H1 human ES cells; 3 μM, after four weeks of differentiation", "result": "Virtually all cells were nestin, Sox 1 and vimentin-positive, expressed β3-tubulin and Pax6 at low levels, and were negative for musashi"},
      {"measurement": "cells nestin-positive with low levels of β3-tubulin (early neuronal precursors)", "setting": "H1 human ES cells; [1]", "result": "approximately 98%"},
      {"measurement": "non-neural cells (nestin and β3-tubulin negative) or differentiated neurons (β3-tubulin only)", "setting": "H1 human ES cells; [1]", "result": "no non-neural cells or differentiated neurons were observed"},
      {"measurement": "mitotic figures and PCNA-positive cells in monolayer area", "setting": "H1 human ES cells; 3 μM, two weeks, vs DMSO", "result": "many mitotic figures and PCNA-positive cells"}
    ]}
  ]
}
